Reference: patent US12497610B2, “Functional genomics using CRISPR-CAS systems for saturating mutagenesis of non-coding elements, compositions, methods, libraries and applications thereof” (THE BROAD INSTITUTE, INC., priority 2015, dated 2025)

Test system: human BCL11A erythroid enhancer
Assay: Tiled pooled CRISPR-Cas9 screen for in situ functional mapping of the human BCL11A erythroid enhancer (HbF-high/HbF-low sort, sgRNA deep sequencing)
Format: cell-based
Conditions: for Enrichment Score: HbF enrichment, human library NGG and NGG RC sgRNAs filtered for enrichment score >0.259; for Dropout Score: human library sgRNAs that produced HbF enrichment over 0.259
Description: Every 20-mer sequence upstream of an NGG or NAG PAM sequence on the sense or anti-sense strand was identified for both the human and mouse orthologous +55, +58, and +62 DNase hypersensitive site (DHS) as well as BCL11A/BCL11a exon 2. Relative to the human hg 19 reference genome, a reference was used with the following substitutions to approximate a common low-HbF associated haplotype: rs1427407-G, rs1896293-T, rs6706648-T, rs6738440-G, rs7606173-C. Each of the sgRNA oligos were synthesized as previously described (37,41,64) and cloned using a Gibson Assembly master mix (New England Biolabs) into lentiGuide-Puro (Addgene plasmid ID 52963) BsmBI digested, PCR purified, and dephosphorylated. Gibson Assembly products were transformed to electrocompetent E. cloni cells (Lucigen). Sufficient colonies were isolated to ensure 90X library coverage for both human and mouse libraries. Plasmid libraries were deep sequenced (described below) to confirm representation.
Tiled Pooled CRISPR-Cas9 Screen for In Situ Functional Mapping the Human BCL11A Erythroid Enhancer.
HUDEP clone 2 (HUDEP-2) was utilized as previously described by from Nakamura and colleagues (49). HUDEP-2 cells were expanded in StemSpan SFEM (Stem Cell Technologies) supplemented with 10^−6 M dexamethasone (Sigma), 100 ng/mL human stem cell factor (SCF) (R&D), 3 IU/mL erythropoietin (Amgen), 1% L-glutamine (Life Technologies), and 2% penicillin/streptomycin (Life Technologies). 1 μg/mL doxycycline (Sigma) was included in the culture to induce expression of the human papilloma virus type 16 E6/E7 genes (49). HUDEP-2 cells were differentiated in Iscove's Modified Dulbecco's Medium (IMDM) supplemented with 330 μg/mL halo-transferrin (Sigma), 10 μg/mL recombinant human insulin (Sigma), 2 IU/mL heparin (Sigma), 5% human solvent detergent pooled plasma AB (Rhode Island Blood Center), 3 IU/mL erythropoietin (Amgen), 100 ng/mL human stem cell factor (SCF) (R&D), 1 μg/mL doxycycline (Sigma), 1% L-glutamine (Life Technologies), and 2% penicillin/streptomycin (Life Technologies).
HUDEP-2 cells with stable Cas9 expression were transduced at low multiplicity with the human sgRNA library lentivirus pool while in expansion medium. […] Cell numbers were maintained throughout the experiment at levels adequate to exceed 1000× representation of the library. 10 μg/mL blasticidin (Sigma) and 1 μg/mL puromycin (Sigma) were added 24 hours after transduction to select for lentiviral library integrants in cells with Cas9. Cells were cultured in expansion media for one week followed by differentiation media for an additional week.
Intracellular staining was performed by fixing cells with 0.05% glutaraldehyde (grade II) (Sigma) for 10 minutes at room temperature. Cells were centrifuged for 5 minutes at 350 g and then resuspended in 0.1% Triton-X100 (Life Technologies) for 5 minutes at room temperature for permeabilization. Triton X-100 was diluted with phosphate buffered saline (PBS) and then centrifuged at 350 g for 15 minutes. Cells were stained with anti-human antibodies for HbF (clone HbF-1 with FITC or APC conjugation; Life Technologies) and B-hemoglobin antibody (clone 37-8 with PerCP-Cy5 or PE conjugation; Santa Cruz) for 20 minutes in the dark. Cells were washed to remove unbound antibody prior to FACS analysis. 0.2 μg HbF and 2 μg of HbA CB-hemoglobin) antibodies were used per 5 million cells. Control cells exposed to a nontargeting sgRNA sample and BCL11A exon 2 were used as negative and positive controls respectively to establish flow cytometry conditions. Populations of cells with the top and bottom 10% of expression of HbF were sorted by FACS.
After sorting the HbF-high and HbF-low pools, library preparation and deep sequencing was performed as previously described (37). Briefly, genomic DNA was extracted using the Qiagen Blood and Tissue kit. […]

In the case of “BCL_01438_H_D55 (guide TACCAGGATGATGCAATGCTNGGRC; listed as DNA, chemistry not given here)”, the “Enrichment Score” value was 0.9129 and the “Dropout Score” value was −0.4122.
In the case of “BCL_01428_H_D55 (guide GAATGTCCCAGGCCAATTCTNGGRC; listed as DNA, chemistry not given here)”, the “Enrichment Score” value was 0.4299 and the “Dropout Score” value was −0.5435.
With “BCL_00090_H_D55 (guide CCTGGTACCAGGAAGGCAATNGG; listed as DNA, chemistry not given here)” the “Enrichment Score” value was 0.4651 and the “Dropout Score” value was −0.5292.
For “BCL_01620_H_D58 (guide TTTATCACAGGCTCCAGGAANGGRC; listed as DNA, chemistry not given here)”, the “Enrichment Score” value was 1.38 and the “Dropout Score” value was −0.9481.
“BCL_01641_H_D55 (guide CGGTGGCCGTTTGCCCAGGGNGGRC; listed as DNA, chemistry not given here)” was tested, and the “Enrichment Score” value was 0.282 and the “Dropout Score” value was −0.4633.
For “BCL_00255_H_exon2 (guide ATCATGACCTCCTCACCTGTNGG; listed as DNA, chemistry not given here)”, the “Enrichment Score” value was 1.703 and the “Dropout Score” value was −2.497.
For “BCL_01794_H_D62 (guide CAGGCATGTATTACCATGCCNGGRC; listed as DNA, chemistry not given here)”, the “Enrichment Score” value was 0.2801 and the “Dropout Score” value was −1.011.
In the case of “BCL_00183_H_D58 (guide AAGAGGCCCCCCTGGGCAAANGG; listed as DNA, chemistry not given here)”, the “Enrichment Score” value was 0.7853 and the “Dropout Score” value was −0.5913.
For “BCL_00187_H_D58 (guide ATCAGAGGCCAAACCCTTCCNGG; listed as DNA, chemistry not given here)”, the “Enrichment Score” value was 2.122 and the “Dropout Score” value was −0.7444.
With “BCL_00185_H_D58 (guide GCAAACGGCCACCGATGGAGNGG; listed as DNA, chemistry not given here)” the “Enrichment Score” value was 0.3196 and the “Dropout Score” value was −0.516.
With “BCL_01621_H_D58 (guide CACAGGCTCCAGGAAGGGTTNGGRC; listed as DNA, chemistry not given here)” the “Enrichment Score” value was 2.319 and the “Dropout Score” value was −0.6005.
For “BCL_01622_H_D58 (guide GAAGGGTTTGGCCTCTGATTNGGRC; listed as DNA, chemistry not given here)”, the “Enrichment Score” value was 1.378 and the “Dropout Score” value was −0.6695.
In the case of “BCL_00131_H_D58 (guide TGGGGAGAGAAGAGTGGAAANGG; listed as DNA, chemistry not given here)”, the “Enrichment Score” value was 0.2698 and the “Dropout Score” value was −0.3654.
For “BCL_02006_H_exon2 (guide TCTGGCACTGCCCACAGGTGNGGRC; listed as DNA, chemistry not given here)”, the “Enrichment Score” value was 1.489 and the “Dropout Score” value was −2.029.
With “BCL_01638_H_D58 (guide CATCGGTGGCCGTTTGCCCANGGRC; listed as DNA, chemistry not given here)” the “Enrichment Score” value was 0.635 and the “Dropout Score” value was −0.5928.
With “BCL_02001_H_exon2 (guide CCACAGCTTTTTCTAAGCAGNGGRC; listed as DNA, chemistry not given here)” the “Enrichment Score” value was 0.4913 and the “Dropout Score” value was −0.2495.
In the case of “BCL_00085_H_D55 (guide GGGTGTGCCCTGAGAAGGTGNGG; listed as DNA, chemistry not given here)”, the “Enrichment Score” value was 0.5011 and the “Dropout Score” value was −0.6263.
In the case of “BCL_01684_H_D58 (guide ACAACCTCCTTGTTTACAGANGGRC; listed as DNA, chemistry not given here)”, the “Enrichment Score” value was 0.4945 and the “Dropout Score” value was 0.3674.
In the case of “BCL_02009_H_exon2 (guide TCCCCTTCTGGAGCTCCCAANGGRC; listed as DNA, chemistry not given here)”, the “Enrichment Score” value was 2.108 and the “Dropout Score” value was −1.693.
For “BCL_00248_H_exon2 (guide ACAGATGATGAACCAGACCANGG; listed as DNA, chemistry not given here)”, the “Enrichment Score” value was 1.609 and the “Dropout Score” value was −2.532.
With “BCL_01991_H_exon2 (guide CGTCATCCTCTGGCGTGACCNGGRC; listed as DNA, chemistry not given here)” the “Enrichment Score” value was 0.8523 and the “Dropout Score” value was −0.7166.
In the case of “BCL_00182_H_D58 (guide CTTCCGAAAGAGGCCCCCCTNGG; listed as DNA, chemistry not given here)”, the “Enrichment Score” value was 0.2942 and the “Dropout Score” value was 0.02396.
For “BCL_01626_H_D55 (guide TTTGGCCTCTGATTAGGGTGNGGRC; listed as DNA, chemistry not given here)”, the “Enrichment Score” value was 1.336 and the “Dropout Score” value was −0.2724.
With “BCL_02000_H_exon2 (guide TCGATTGGTGAAGGGGAAGGNGGRC; listed as DNA, chemistry not given here)” the “Enrichment Score” value was 0.4624 and the “Dropout Score” value was −1.365.
For “BCL_01461_H_D55 (guide GCCCTGCTGGTTATCACTGTNGGRC; listed as DNA, chemistry not given here)”, the “Enrichment Score” value was 0.5924 and the “Dropout Score” value was −0.5115.
For “BCL_00258_H_exon2 (guide GCCAGATGAACTTCCCATTGNGG; listed as DNA, chemistry not given here)”, the “Enrichment Score” value was 1.593 and the “Dropout Score” value was −1.899.
For “BCL_00256_H_exon2 (guide GTGCCAGATGAACTTCCCATNGG; listed as DNA, chemistry not given here)”, the “Enrichment Score” value was 1.89 and the “Dropout Score” value was −1.764.
With “BCL_00057_H_D55 (guide GGAAGGGCCTCTATGTAGACNGG; listed as DNA, chemistry not given here)” the “Enrichment Score” value was 0.46 and the “Dropout Score” value was −0.4451.
With “BCL_01625_H_D58 (guide GTTTGGCCTCTGATTAGGGTNGGRC; listed as DNA, chemistry not given here)” the “Enrichment Score” value was 0.3718 and the “Dropout Score” value was −0.9451.
For “BCL_01992_H_exon2 (guide GACCTGGATGCCAACCTCCANGGRC; listed as DNA, chemistry not given here)”, the “Enrichment Score” value was 1.234 and the “Dropout Score” value was −0.6955.
“BCL_00250_H_exon2 (guide GAACCAGACCACGGCCCGTTNGG; listed as DNA, chemistry not given here)” was tested, and the “Enrichment Score” value was 1.581 and the “Dropout Score” value was −0.6847.
With “BCL_02002_H_exon2 (guide AAAATAAGAATGTCCCCCAANGGRC; listed as DNA, chemistry not given here)” the “Enrichment Score” value was 0.505 and the “Dropout Score” value was −0.4259.
With “BCL_00225_H_D62 (guide ACCTGTAATCCCAGCACTTTNGG; listed as DNA, chemistry not given here)” the “Enrichment Score” value was 0.3328 and the “Dropout Score” value was −8.821.
With “BCL_00240_H_D62 (guide TGTAATCTCAGCTACTCGGGNGG; listed as DNA, chemistry not given here)” the “Enrichment Score” value was 0.79 and the “Dropout Score” value was −8.691.
With “BCL_00062_H_D55 (guide AGCAGCCCTGGGCACAGAAGNGG; listed as DNA, chemistry not given here)” the “Enrichment Score” value was 0.3251 and the “Dropout Score” value was −0.6401.
With “BCL_01990_H_exon2 (guide GATAAACAATCGTCATCCTCNGGRC; listed as DNA, chemistry not given here)” the “Enrichment Score” value was 0.8422 and the “Dropout Score” value was −0.6128.
In the case of “BCL_01483_H_D55 (guide GTCATCCTCGGCCAATGAAGNGGRC; listed as DNA, chemistry not given here)”, the “Enrichment Score” value was 0.4318 and the “Dropout Score” value was −0.4056.
